Experimental data taken from patent US10485235B2, “Aryloxypyrimidinyl ethers as herbicides” (FMC Corporation, priority 2015, dated 2019).

Assays:
Assay type in all cases: in vivo
corn (Zea mays) = experiment: Test A postemergence, corn; conditions: for Plant response rating, Corn: postemergence, 0 to 100 scale, 0 is no effect, 100 is complete control, approximately 10 days
How it was run: (§1)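 Test chemicals in a solvent/surfactant mixture were applied as a preemergence directed soil spray on seeded loam–sand, or postemergence to plants 2–10 cm tall at the one- to two-leaf stage. After roughly 10 days in a greenhouse, injury was visually rated versus untreated controls on a 0 (no effect) to 100 (complete control) scale.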

rice (Oryza sativa) = experiment: Test B flooded paddy test, rice
How it was run: (§2)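 2-leaf plants; flood to 3 cm, dose into water, hold depth; greenhouse 13–15 d; visual score 0–100 vs controls; dash = not tested.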

[1] = system: blackgrass (Alopecurus myosuroides); experiment: Test A postemergence, blackgrass; conditions: for Plant response rating, Blackgrass: postemergence, 0 to 100 scale, 0 is no effect, 100 is complete control, approximately 10 days
How it was run: as §1

[2] = system: pigweed (Amaranthus retroflexus); experiment: Test A postemergence, pigweed; conditions: for Plant response rating, Pigweed: postemergence, 0 to 100 scale, 0 is no effect, 100 is complete control, approximately 10 days
How it was run: as §1

[3] = system: barnyardgrass (Echinochloa crus-galli); experiment: Test A postemergence, barnyardgrass; conditions: for Plant response rating, Barnyardgrass: postemergence, 0 to 100 scale, 0 is no effect, 100 is complete control, approximately 10 days
How it was run: as §1

[4] = system: barnyardgrass (Echinochloa crus-galli); experiment: Test B flooded paddy test, barnyardgrass
How it was run: as §2

[5] = system: ryegrass, Italian (Italian ryegrass, Lolium multiflorum); experiment: Test A postemergence, Italian ryegrass; conditions: for Plant response rating, Ryegrass, Italian: postemergence, 0 to 100 scale, 0 is no effect, 100 is complete control, approximately 10 days
How it was run: as §1

[6] = system: foxtail, giant (giant foxtail, Setaria faberii); experiment: Test A preemergence, giant foxtail; conditions: for Plant response rating, Foxtail, Giant: Preemergence, 0 to 100 scale (0 no effect, 100 complete control)
How it was run: as §1

[7] = system: barnyardgrass (Echinochloa crus-galli); experiment: Test A preemergence, barnyardgrass; conditions: for Plant response rating, Barnyardgrass: Preemergence, 0 to 100 scale (0 no effect, 100 complete control)
How it was run: as §1

[8] = system: ragweed (common ragweed, Ambrosia elatior); experiment: Test A postemergence, ragweed; conditions: for Plant response rating, Ragweed: postemergence, 0 to 100 scale, 0 is no effect, 100 is complete control, approximately 10 days
How it was run: as §1

[9] = system: sedge, umbrella (small-flower umbrella sedge, Cyperus difformis); experiment: Test B flooded paddy test, umbrella sedge
How it was run: as §2

[10] = system: foxtail, giant (giant foxtail, Setaria faberii); experiment: Test A postemergence, giant foxtail; conditions: for Plant response rating, Foxtail, Giant: postemergence, 0 to 100 scale, 0 is no effect, 100 is complete control, approximately 10 days
How it was run: as §1

[11] = system: ducksalad (Heteranthera limosa); experiment: Test B flooded paddy test, ducksalad
How it was run: as §2

kochia (Kochia scoparia) [12] = experiment: Test A preemergence, kochia; conditions: for Plant response rating, Kochia: Preemergence, 0 to 100 scale (0 no effect, 100 complete control)
How it was run: as §1

[13] = system: wheat (Triticum aestivum); experiment: Test A postemergence, wheat; conditions: for Plant response rating, Wheat: postemergence, 0 to 100 scale, 0 is no effect, 100 is complete control, approximately 10 days
How it was run: as §1

kochia (Kochia scoparia) [14] = experiment: Test A postemergence, kochia; conditions: for Plant response rating, Kochia: postemergence, 0 to 100 scale, 0 is no effect, 100 is complete control, approximately 10 days
How it was run: as §1

[15] = system: ragweed (common ragweed, Ambrosia elatior); experiment: Test A preemergence, ragweed; conditions: for Plant response rating, Ragweed: Preemergence, 0 to 100 scale (0 no effect, 100 complete control)
How it was run: as §1

[16] = system: ryegrass, Italian (Italian ryegrass, Lolium multiflorum); experiment: Test A preemergence, Italian ryegrass; conditions: for Plant response rating, Ryegrass, Italian: Preemergence, 0 to 100 scale (0 no effect, 100 complete control)
How it was run: as §1

[17] = system: galium (catchweed bedstraw, Galium aparine); experiment: Test A postemergence, galium; conditions: for Plant response rating, Galium: postemergence, 0 to 100 scale, 0 is no effect, 100 is complete control, approximately 10 days
How it was run: as §1

[18] = system: pigweed (Amaranthus retroflexus); experiment: Test A preemergence, pigweed; conditions: for Plant response rating, Pigweed: Preemergence, 0 to 100 scale (0 no effect, 100 complete control)
How it was run: as §1

[19] = Zea mays, post-emergence, 240 h, read-out: Plant response rating, Corn
[20] = Alopecurus myosuroides, post-emergence, 240 h, read-out: Plant response rating, Blackgrass
[21] = Amaranthus retroflexus, post-emergence, 240 h, read-out: Plant response rating, Pigweed
[22] = Echinochloa crus-galli, post-emergence, 240 h, read-out: Plant response rating, Barnyardgrass
[23] = Lolium multiflorum, post-emergence, 240 h, read-out: Plant response rating, Ryegrass, Italian
[24] = Setaria faberi, pre-emergence, 240 h, read-out: Plant response rating, Foxtail, Giant
[25] = Echinochloa crus-galli, pre-emergence, 240 h, read-out: Plant response rating, Barnyardgrass
[26] = Ambrosia artemisiifolia, post-emergence, 240 h, read-out: Plant response rating, Ragweed
[27] = Setaria faberi, post-emergence, 240 h, read-out: Plant response rating, Foxtail, Giant
[28] = Bassia scoparia, pre-emergence, 240 h, read-out: Plant response rating, Kochia
[29] = Triticum aestivum, post-emergence, 240 h, read-out: Plant response rating, Wheat
[30] = Bassia scoparia, post-emergence, 240 h, read-out: Plant response rating, Kochia
[31] = Ambrosia artemisiifolia, pre-emergence, 240 h, read-out: Plant response rating, Ragweed
[32] = Lolium multiflorum, pre-emergence, 240 h, read-out: Plant response rating, Ryegrass, Italian
[33] = Galium, post-emergence, 240 h, read-out: Plant response rating, Galium
[34] = Amaranthus retroflexus, pre-emergence, 240 h, read-out: Plant response rating, Pigweed
[35] = 250 g ai/ha, Flood, visual rating after 13 to 15 days, scale 0 to 100, 0 is no effect, 100 is complete control

FC(F)(F)C(F)(F)C(F)(F)COc1c(Br)cccc1Oc1ncc(Cl)cn1 [Compound 52, 2-[3-bromo-2-(2,2,3,3,4,4,4-heptafluorobutoxy)phenoxy]-5-chloropyrimidine]
plant injury at 125 g/ha (corn (Zea mays); [19]): 10% | plant injury at 500 g/ha (corn (Zea mays); [19]): 30% | plant injury at 250 g/ha (rice (Oryza sativa); Oryza sativa, read-out: Plant response rating, Rice): 15% | pest or weed control at 125 g/ha [1, 20]: 10% | pest or weed control at 500 g/ha [1, 20]: 20% | pest or weed control at 125 g/ha [2, 21]: 80% | pest or weed control at 500 g/ha [2, 21]: 100% | pest or weed control at 125 g/ha [3, 22]: 10% | pest or weed control at 500 g/ha [3, 22]: 80% | pest or weed control at 250 g/ha ([4]; Echinochloa crus-galli, read-out: Plant response rating, Barnyardgrass): 0% | pest or weed control at 125 g/ha [5, 23]: 20% | pest or weed control at 500 g/ha [5, 23]: 40% | pest or weed control at 125 g/ha [6, 24]: 80% | pest or weed control at 500 g/ha [6, 24]: 100% | pest or weed control at 125 g/ha [7, 25]: 30% | pest or weed control at 500 g/ha [7, 25]: 50% | pest or weed control at 125 g/ha [8, 26]: 20% | pest or weed control at 500 g/ha [8, 26]: 30% | pest or weed control at 250 g/ha ([9]; Cyperus difformis, read-out: Plant response rating, Sedge, Umbrella): 90% | pest or weed control at 125 g/ha [10, 27]: 20% | pest or weed control at 500 g/ha [10, 27]: 80% | pest or weed control at 250 g/ha ([11]; Heteranthera limosa, read-out: Plant response rating, Ducksalad): 75% | pest or weed control at 125 g/ha (kochia (Kochia scoparia) [12]; [28]): 0% | pest or weed control at 500 g/ha (kochia (Kochia scoparia) [12]; [28]): 40% | plant injury at 125 g/ha [13, 29]: 0% | plant injury at 500 g/ha [13, 29]: 20% | pest or weed control at 125 g/ha (kochia (Kochia scoparia) [14]; [30]): 70% | pest or weed control at 500 g/ha (kochia (Kochia scoparia) [14]; [30]): 90% | pest or weed control at 125 g/ha [15, 31]: 0% | pest or weed control at 500 g/ha [15, 31]: 0% | pest or weed control at 125 g/ha [16, 32]: 10% | pest or weed control at 500 g/ha [16, 32]: 50% | pest or weed control at 125 g/ha [17, 33]: 40% | pest or weed control at 500 g/ha [17, 33]: 90% | pest or weed control at 125 g/ha [18, 34]: 70% | pest or weed control at 500 g/ha [18, 34]: 100%

FC(F)C(F)(F)C(F)(F)C(F)(F)COc1c(Br)cccc1Oc1ncc(Cl)cn1 [Compound 53]
Plant response rating, Corn (corn (Zea mays); 125 g ai/ha): 10 | Plant response rating, Corn (corn (Zea mays); 500 g ai/ha): 30 | Plant response rating, Rice (rice (Oryza sativa); [35]): 15 | Plant response rating, Blackgrass ([1]; 125 g ai/ha): 30 | Plant response rating, Blackgrass ([1]; 500 g ai/ha): 60 | Plant response rating, Pigweed ([2]; 125 g ai/ha): 100 | Plant response rating, Pigweed ([2]; 500 g ai/ha): 100 | Plant response rating, Barnyardgrass ([3]; 125 g ai/ha): 40 | Plant response rating, Barnyardgrass ([3]; 500 g ai/ha): 100 | Plant response rating, Barnyardgrass [4, 35]: 0 | Plant response rating, Ryegrass, Italian ([5]; 125 g ai/ha): 20 | Plant response rating, Ryegrass, Italian ([5]; 500 g ai/ha): 70 | Plant response rating, Foxtail, Giant ([6]; 125 g ai/ha): 100 | Plant response rating, Foxtail, Giant ([6]; 500 g ai/ha): 100 | Plant response rating, Barnyardgrass ([7]; 125 g ai/ha): 60 | Plant response rating, Barnyardgrass ([7]; 500 g ai/ha): 100 | Plant response rating, Ragweed ([8]; 125 g ai/ha): 40 | Plant response rating, Ragweed ([8]; 500 g ai/ha): 80 | Plant response rating, Sedge, Umbrella [9, 35]: 80 | Plant response rating, Foxtail, Giant ([10]; 125 g ai/ha): 30 | Plant response rating, Foxtail, Giant ([10]; 500 g ai/ha): 100 | Plant response rating, Ducksalad [11, 35]: 90 | Plant response rating, Kochia (kochia (Kochia scoparia) [12]; 125 g ai/ha): 20 | Plant response rating, Kochia (kochia (Kochia scoparia) [12]; 500 g ai/ha): 90 | Plant response rating, Wheat ([13]; 125 g ai/ha): 10 | Plant response rating, Wheat ([13]; 500 g ai/ha): 30 | Plant response rating, Kochia (kochia (Kochia scoparia) [14]; 125 g ai/ha): 100 | Plant response rating, Kochia (kochia (Kochia scoparia) [14]; 500 g ai/ha): 100 | Plant response rating, Ragweed ([15]; 125 g ai/ha): 0 | Plant response rating, Ragweed ([15]; 500 g ai/ha): 20 | Plant response rating, Ryegrass, Italian ([16]; 125 g ai/ha): 20 | Plant response rating, Ryegrass, Italian ([16]; 500 g ai/ha): 80 | Plant response rating, Galium ([17]; 125 g ai/ha): 90 | Plant response rating, Galium ([17]; 500 g ai/ha): 100 | Plant response rating, Pigweed ([18]; 125 g ai/ha): 80 | Plant response rating, Pigweed ([18]; 500 g ai/ha): 100
